From ChEMBL document CHEMBL3045837, “Tobacco mosaic virus (TMV) inhibitors from Picrasma quassioides Benn” (J Agric Food Chem, 2009) come the findings set out here.

The inhibition is the relative decrease from the control value, in per cent. For orientation: EC50 means the concentration giving half of the maximal effect.

The test system of assay [1] is Tobacco mosaic virus. Briefly: Antiviral activity against Tobacco mosaic virus U1 (TMV) infected Nicotiana glutinosa leaves assessed as inhibition of viral infection at 50 ug/mL using compound pre-treated virus suspension measured 5 to 6 days after compound exposure. The format is functional. The following applies: U1, in Nicotiana glutinosa.
Assay [2] concerns Tobacco mosaic virus. As to the kind of experiment: Antiviral activity against Tobacco mosaic virus U1 (TMV) infected Nicotiana tabacum cv. K326 leaves assessed as inhibition of viral replication at 50 ug/mL measured 48 hr after compound exposure by leaf-disk method. The format is functional. The following applies: U1, 48 h.
Assay [3] deals with Tobacco mosaic virus. As to the kind of experiment: Antiviral activity against Tobacco mosaic virus U1 (TMV) infected Nicotiana glutinosa leaves assessed as inhibition of viral replication at 50 ug/mL measured 48 hr after compound exposure by half leaf method. The following applies: U1, in Nicotiana glutinosa. It counts as functional.
The test system of assay [4] is Tobacco mosaic virus. Briefly: Inhibition of Tobacco mosaic virus U1 (TMV) coat protein accumulation using virus infected Nicotiana tabacum cv. K326 leaves at 50 ug/mL by SDS-PAGE and Western blotting method. It counts as functional, organism-based.
Assay [5] has as its system Tobacco mosaic virus. As to the kind of experiment: Antiviral activity against Tobacco mosaic virus U1 (TMV) infected Nicotiana glutinosa leaves assessed as inhibition of viral infection at 50 ug/mL using compound pre-treated virus suspension in presence of 25 ug/mL quassinoid nigakilactone B measured 5 to 6 days after compound exposure. It counts as functional.
Assay [6] deals with Tobacco mosaic virus. As to the kind of experiment: Antiviral activity against Tobacco mosaic virus U1 (TMV) infected Nicotiana tabacum cv. K326 leaves assessed as inhibition of viral replication at 50 ug/mL in presence of 25 ug/mL quassinoid nigakilactone B measured 48 hr after compound exposure by leaf-disk method. The format is functional.
Assay [7] deals with Tobacco mosaic virus. As to the kind of experiment: Antiviral activity against Tobacco mosaic virus U1 (TMV) infected Nicotiana glutinosa leaves assessed as inhibition of viral replication at 50 ug/mL in presence of 25 ug/mL quassinoid nigakilactone B measured 48 hr after compound exposure by half leaf method. The format is functional.
In assay [8] the test system is Tobacco mosaic virus. Briefly: Antiviral activity against Tobacco mosaic virus U1 (TMV) infected Nicotiana tabacum cv. K326 leaves assessed as inhibition of viral replication in presence of 25 ug/mL quassinoid nigakilactone B measured 48 hr after compound exposure by leaf-disk method. It counts as functional, organism-based. The following applies: U1, 48 h.
Assay [9] deals with Tobacco mosaic virus. As to the kind of experiment: Antiviral activity against Tobacco mosaic virus U1 (TMV) infected Nicotiana tabacum cv. K326 leaves assessed as inhibition of viral replication measured 48 hr after compound exposure by leaf-disk method. It counts as functional, organism-based. The following applies: U1, 48 h.
For assay [10], the system named is Tobacco mosaic virus. As to the kind of experiment: Inhibition of Tobacco mosaic virus U1 (TMV) coat protein accumulation using virus infected Nicotiana tabacum cv. K326 leaves by SDS-PAGE and Western blotting method. The format is functional, organism-based. For orientation: Immunoblotting shows a protein as a band on a membrane.

Molecules are shown by their SMILES. Activity calls are given as the source filed them. No cut-off for these calls is given here.

For `COC1=C[C@@H](C)[C@@H]2C[C@H]3OC(=O)C[C@H]4[C@@H](C)[C@H](OC)[C@@H](O)[C@H]([C@@]2(C)C1=O)[C@@]34C` [NIGAKILACTONE B], the inhibition at 50 µg/mL in the assay on Tobacco mosaic virus [1] was 10%; with Tobacco mosaic virus [2], 3.2%; with Tobacco mosaic virus [3], 6.7%. Further, the inhibition result in the assay on Tobacco mosaic virus [4] was “inactive”.
For the compound `CCc1nccc2c1[nH]c1c(OC)cccc12`, the inhibition at 50 µg/mL turned out to be 45.5% in the assay on Tobacco mosaic virus [1], 20.9% in the assay on Tobacco mosaic virus [2] and 25% in the assay with Tobacco mosaic virus [3]. Besides, the figures for the “inhibition (INH)” value with Tobacco mosaic virus [5], in the assay on Tobacco mosaic virus [6] and in the assay with Tobacco mosaic virus [7] were 50%, 48.4% and 36.4%, respectively.
`CNCC(=O)N[C@@H](CO)C(=O)N[C@H]1[C@H](O)[C@@H](O)[C@H](n2ccc(N)nc2=O)O[C@@H]1C(N)=O` [NINGNANMYCIN]: the concentration giving a half-maximal response (EC50) in the assay with Tobacco mosaic virus [8] was found to be 129 µM; in the assay on Tobacco mosaic virus [9], 135 µM. For the same compound, the inhibition at 50 µg/mL was 60% in the assay on Tobacco mosaic virus [1], 51% with Tobacco mosaic virus [2] and 54.5% in the assay with Tobacco mosaic virus [3]. For the same compound, the “inhibition (INH)” value in the assay on Tobacco mosaic virus [5] stood at 55.6%; in the assay with Tobacco mosaic virus [6] it was 52.6%; in the assay on Tobacco mosaic virus [7], 53.8%.
Turning to `COC(=O)c1ncc(O)c2c1[nH]c1ccccc12`, the inhibition at 50 µg/mL with Tobacco mosaic virus [1] turned out to be 60%; in the assay on Tobacco mosaic virus [2], 45.7%; in the assay on Tobacco mosaic virus [3], 41.7%. In addition, the “inhibition (INH)” value in the assay on Tobacco mosaic virus [5] is given as 69.2%; in the assay on Tobacco mosaic virus [6], 62.3%; in the assay with Tobacco mosaic virus [7] it was 55.6%.
For the compound `O=C1NC(=O)c2[nH]c3ccccc3c2C1=O`, the values for the inhibition at 50 µg/mL in the assay with Tobacco mosaic virus [1], with Tobacco mosaic virus [2] and in the assay on Tobacco mosaic virus [3] were 44.4%, 29.5% and 29.4%, respectively. In addition, the results for the “inhibition (INH)” value in the assay with Tobacco mosaic virus [5], in the assay on Tobacco mosaic virus [6] and with Tobacco mosaic virus [7] were 52.1%, 35.8% and 33.3%, respectively.
In the case of `COc1c(OC)c2nccc3c4ccccc4n(c1=O)c23` [4,5-DIMETHOXYCANTHIN-6-ONE], the concentration for a half-maximal effect (EC50) in the assay with Tobacco mosaic virus [8] was 130 µM; with Tobacco mosaic virus [9], 189 µM. The values for the inhibition at 50 µg/mL in the assay with Tobacco mosaic virus [1], in the assay on Tobacco mosaic virus [2] and in the assay with Tobacco mosaic virus [3] were 58.3%, 42.6% and 33.3%, respectively. In addition, the figures for the “inhibition (INH)” value in the assay with Tobacco mosaic virus [5], in the assay on Tobacco mosaic virus [6] and in the assay with Tobacco mosaic virus [7] were 61.1%, 59% and 43.8%, respectively.
Take `COc1cccc2c3c([nH]c12)C(=O)NC(=O)C3=O`: the EC50 was 183 µM in the assay with Tobacco mosaic virus [8] and 257 µM with Tobacco mosaic virus [9]. Further, the values for the inhibition at 50 µg/mL in the assay on Tobacco mosaic virus [1], in the assay with Tobacco mosaic virus [2] and in the assay with Tobacco mosaic virus [3] were 50%, 35.1% and 39.5%, respectively. The results for the “inhibition (INH)” value in the assay on Tobacco mosaic virus [5], in the assay on Tobacco mosaic virus [6] and in the assay with Tobacco mosaic virus [7] were 55.9%, 59.8% and 47.3%, respectively.
For the compound `C=Cc1ncc(OC)c2c1[nH]c1c(OC)cccc12`, the inhibition at 50 µg/mL in the assay on Tobacco mosaic virus [1] was 53.3%; in the assay with Tobacco mosaic virus [2], 39.7%; in the assay on Tobacco mosaic virus [3] it was 38.5%. Also, the “inhibition (INH)” value in the assay with Tobacco mosaic virus [5] was 58.3%; with Tobacco mosaic virus [6] it was 63%; in the assay on Tobacco mosaic virus [7] it was 47.1%.
For the compound `COc1c(O)c2nccc3c4ccccc4n(c1=O)c23` [PICRASIDINE Q], the inhibition at 50 µg/mL is 42.9% in the assay with Tobacco mosaic virus [1], 25.6% in the assay with Tobacco mosaic virus [2] and 35.7% in the assay with Tobacco mosaic virus [3]. Besides, the “inhibition (INH)” value in the assay with Tobacco mosaic virus [5] amounted to 66.7%; in the assay on Tobacco mosaic virus [6], 52.6%; in the assay with Tobacco mosaic virus [7], 53.8%.
`COc1cccc2c1[nH]c1c(CCC(=O)c3nccc4c3[nH]c3ccccc34)ncc(OC)c12`: the concentration for a half-maximal effect (EC50) with Tobacco mosaic virus [8] came to 78 µM; in the assay with Tobacco mosaic virus [9] it was 131 µM. Also, the figures for the inhibition at 50 µg/mL in the assay on Tobacco mosaic virus [1], in the assay on Tobacco mosaic virus [2] and in the assay on Tobacco mosaic virus [3] were 45.5%, 28.9% and 39.4%, respectively. Also, the “inhibition (INH)” value in the assay with Tobacco mosaic virus [5] is on record as 68.3%; in the assay with Tobacco mosaic virus [6], 64.8%; in the assay on Tobacco mosaic virus [7] it was 52.4%.
For `COc1cc2nccc3c4ccccc4n(c1=O)c23` [5-METHOXYCANTHINONE], the inhibition at 50 µg/mL in the assay with Tobacco mosaic virus [1] came out at 36.4%; in the assay with Tobacco mosaic virus [2], 27.5%; in the assay on Tobacco mosaic virus [3], 40%. In addition, the figures for the “inhibition (INH)” value with Tobacco mosaic virus [5], in the assay with Tobacco mosaic virus [6] and with Tobacco mosaic virus [7] were 58.3%, 45.7% and 50%, respectively.
Consider `COC(=O)c1nccc2c1[nH]c1ccccc12`, for which the EC50 with Tobacco mosaic virus [8] amounted to 115 µM; in the assay on Tobacco mosaic virus [9], 179 µM. Besides, the inhibition at 50 µg/mL is 71.4% with Tobacco mosaic virus [1], 60.4% in the assay on Tobacco mosaic virus [2] and 47.4% in the assay with Tobacco mosaic virus [3]. For the same compound, the “inhibition (INH)” value in the assay on Tobacco mosaic virus [5] worked out at 73.3%; in the assay with Tobacco mosaic virus [6] it was 71.9%; in the assay on Tobacco mosaic virus [7], 68.4%. In addition, the inhibition entry in the assay with Tobacco mosaic virus [10] is “Dose-dependent effect”.
